The test system of series [1] is tetrabenazine induced ptosis. Description: antagonism of tetrabenazine induced ptosis. The class given is in vivo. The following applies: Mus musculus, 1 h; oral, male mice; tetrabenazine methanesulfonate 100 mg/kg one hour after test compound; ptosis observed one hour later. The procedure:
Groups of 10 mice each are administered tetrabenazine methanesulfonate at a dose of 100 mg/kg., one hour after oral administration of the test compound. One hour after tetrabenazine administration, each mouse is observed for the presence or absence of ptosis. An ED50 value for the antagonism of tetrabenazine induced ptosis is then determined.

A further series can be described thus: acute toxicity (LD50). The following applies: mouse, in vivo.

Turning to `C/N=C1/N(C)C(=O)/C(=C\c2c[nH]c3ccccc23)N1C` [(E)-5-(indol-3-ylmethylene)-1,3-dimethyl-2-methylimino-4-imidazolidinone], the 50% effect level in series [1] (ED50) was put at a dose of 5 mg/kg. For the same compound, the LD50 in “acute toxicity (LD50)” (ip) was found to be 670 mg/kg; in the series “acute toxicity (LD50)” (po) it was 900 mg/kg.

As for `COc1ccc2c3c([nH]c2c1)C(C)=NCC3` [harmaline], the 50% lethal dose (LD50) in “acute toxicity (LD50)” (ip) came out at 120 mg/kg; in “acute toxicity (LD50)” (po), 380 mg/kg.

As for `C#CCN(C)Cc1ccccc1` [pargyline], the LD50 in “acute toxicity (LD50)” (ip) turned out to be 390 mg/kg; in the series “acute toxicity (LD50)” (po), 720 mg/kg.

(Values after patent publication US4195179A, “5-(Indol-3-ylmethylene)-1,3-dimethyl-2-methylamino-4-imidazolidinone” (Hoffmann-La Roche Inc., priority 1976, dated 1980).)
